Data reported in US11267809B2, “BAF complex modulating compounds and methods of using the same” (THE BOARD OF TRUSTEES OF THE LELAND STANFORD JUNIOR …, priority 2017, dated 2022).
pIC50: −log10 of the molar value. Read-outs that look alike come from different tables or passages of the source.

Experiments:
[1] = tested on: HCT116 cells; assay: Synergy viability assay (CellTitre blue, 5 days), HCT116 ARID1A(+/+); assay type: cell-based, human; conditions: for average combination index (CI) of putative inhibitor: with VE-821 (1-30 uM) and putative inhibitor (1-30 uM); for average combination index (CI) of putative inhibitor / average combination index (CI) of TOP2 inhibitor / pIC50: 5 days; for average combination index (CI) of TOP2 inhibitor: with VE-821, ARID1A(+/+); for pIC50: Homo sapiens, HCT-116, 120 h, read-out: VE-821 IC50 in combination with BAFi
Method: To assess drug synergy, the Chou-Talalay method was employed to provide a mechanism-independent method to quantify the synergism of drug interactions. This method combines elements of the Scatchard, Michaelis-menten, Hill, and Henderson-Hasslebalch equations through the law of mass-action^31,32 to generate a quantifiable assessment of synergy. Molecules were tested both independently and then in 25 different combinations in HCT116 cells for 5 days as described above. To determine a combination index (CI), median-effect equations of the two respective molecules were determined from their respective dose responses. The median-effect equation was used to calculate a median-effect dose, and (Dx)ATRi,BAFi values which correspond for the respective doses of the BAFi and ATRi compounds and correlate with a given percentage of cells affected by the individual treatments. Normalized index values (IATRi, IBAFi), and the combination index are a ratio between the treatment dose, and the Dx for a given fraction of affected cells. Combination indices less than 0.9 are considered synergistic, while values ranging from 0.9 to 1.1 are additive, and CIs above 1.1 are antagonistic.
(§1) Viability assays were performed in 384-well plates. Cells were plated at 500 cells/well. Each drug was administered in 5-doses with 4 replicates per plate, and each 5×5 drug combination was administered with 8 replicates per plate, 24 hours after seeding. All error bars represent 4 or 8 technical replicates averaged over 3 independent experiments. Media containing fresh drug was replaced every 48 hours. After 5 days, cellular viability was measured using CellTitre blue, as described by the manufacturer.

[2] = tested on: HCT116 (ARID1A−/−) cell line; assay: Synergy viability assay, HCT116 ARID1A(-/-); assay type: cell-based, human; conditions: for average combination index (CI) of TOP2 inhibitor: with VE-821, ARID1A(−/−), 5 days
Source text: (§2) SMARCA4, the primary target of our original screen, is present in both human BAF and PBAF complexes in cancer^12. PBAF complexes differ from BAF complexes by incorporation of specific subunits. Specifically, PBAF complexes contain ARID2 (as opposed to ARID1A/B), PHF10 (BAF45a) (as opposed to […] (BAF45d)), PBRM1, and lack the BAF-specific subunit SS18. PBAF specific subunits are also frequently mutated in cancer, specifically renal clear cell carcinomas and cholangiocarcinomas^33-36. To assess whether the lead compound is targeting BAF, PBAF complexes, or both, we constitutively knocked down ARID1A or ARID2 by lentiviral transduction of HCT116 cells and compared the BAFi/ATRi synergy to the wild-type (ARID1A+/+).
Isogenic HCT116 ARID1A(+/+) and ARID1A(−/−) cell lines were originally obtained from Horizon Discovery. MCF-7, Cal-51, A-704, and MDA-MB-436, MDA-MB-468, HCC1143, HCC1187, HCC1954, and ACHN cell lines were obtained from American Type […]. All cell lines were grown in McCoy's 5a Media supplemented with 10% FBS.
as §1

[3] = tested on: HCT116 cells, ARID1A deleted; conditions: HCT116 cells upon deletion of ARID1A, 5 days of treatment; read-out: IC50 of VE-821; cited from earlier work
[4] = tested on: HCT116 cells; conditions: 5 days of treatment, before ARID1A deletion, read-out: IC50 of VE-821; cited from earlier work
[5] = tested on: HCT116 cells infected with shRNA lentivirus targeting ARID1A; assay: Synergy viability assay, HCT116 with shARID1A knockdown; assay type: cell-based, human; conditions: single agent, 5 continuous days
Source text: as §2, with “(ARID1A+/+). […] Further, upon knockdown of ARID1A or ARID2 (FIG. 3b), the synergistic effect observed between Baficillin1 and VE-821 was ablated upon loss of ARID1A (FIG. 3e) (CIshARID1A=1.48±0.14), but not loss of shARID2 (CIshARID2=0.42±0.04) (FIG. 3c-e).” for “(ARID1A+/+).”
as §1
Lentiviruses were produced in Lenti-X 293T cells (Clonetech) via spinfection with polyethylenimine transfection. 293T-x cells were transfected with PEI (Polysciences Inc., 24765) with lentiviral PLKO shARID1A or GIPZ shARID2 knockdown vectors, co-transfected with packaging vectors pspax2 and pMD2.G as previously described^49. PLKO shRNA construct targeting ARID1A (TRCN0000059090: shRNA-2) was obtained^50 and GIPZ Human ARID2 shRNA was purchased from Dharmacon (CloneId:V2LHS_74399). […]

Molecule: CCc1nc(N)nc(N)c1-c1ccc(Cl)cc1 [Chloroidine, Pyrimethamine]
- average combination index (CI) of putative inhibitor [1]: 1.3±0.18

Molecule: COc1cccc2c1C(=O)c1c(O)c3c(c(O)c1C2=O)C[C@@](O)(C(=O)CO)C[C@@H]3O[C@H]1C[C@H](N)[C@H](O)[C@H](C)O1 [Doxorubicin]
- average combination index (CI) of TOP2 inhibitor [2]: 0.95±0.06
- average combination index (CI) of TOP2 inhibitor [1]: 0.87±0.07

Molecule: COc1ccc2c(C)nc(Nc3nc(C)c(C)c(=O)[nH]3)nc2c1 [Madrasin]
- average combination index (CI) of putative inhibitor [1]: 1.4±0.04

Molecule: O=C(/C=C/N1C[C@H]2C[C@@H]1CN2c1ccccn1)c1ccccc1O [PFI-3]
- individual dose-response or synergy with VE-821 ([2]; ARID1A(−/−) condition): no measurable individual dose-response or synergy effects
- individual dose-response or synergy with VE-821 ([1]; ARID1A(+/+) condition, as treated in FIG. 4c): no measurable individual dose-response or synergy effects

Molecule: CS(=O)(=O)c1ccc(-c2cnc(N)c(C(=O)Nc3ccccc3)n2)cc1 [VE-821]
- sensitivity (cell survival) compared to wild-type HCT116 ([2]; single agent, 5 continuous days): increased sensitivity
- pIC50 [3]: ~6.00
- pIC50 ([1]; highest dose of BAFi (Baficillin1) tested in combination): ~6.00
- pIC50 ([1]; lowest dose of BAFi (Baficillin1) 1.25 uM): ~5.40
- pIC50 [4]: ~5.00
- sensitivity (cell survival) compared to wild-type HCT116 [5]: increased sensitivity

Molecule: CC(Oc1ccc(Oc2cnc3ccc(Cl)cc3n2)cc1)C(=O)O (stereo not shown) [XK469]
- average combination index (CI) of TOP2 inhibitor [2]: 0.85±0.09
- average combination index (CI) of TOP2 inhibitor [1]: 0.75±0.05

Molecule: ICRF-193
- average combination index (CI) of TOP2 inhibitor [2]: 0.82±0.08
- average combination index (CI) of TOP2 inhibitor [1]: 1.0±0.05
